According to US9210931B2, “Pesticidal compositions and processes related thereto” (Dow AgroSciences LLC, priority 2010, dated 2015):

Key:
[1] = test system: Sweetpotato whitefly-crawler (Bemisia tabaci) (BEMITA); test: Insecticidal test for sweetpotato whitefly-crawler in foliar spray assay on cotton plants; type: in vivo; conditions: 200 ppm foliar spray on cotton plants, graded after 8-9 days, Abbott-corrected % control, read-out: BEMITA % Ctrl @ 200 ppm
Procedure: Cotton plants grown in 3-inch pots, with 1 small (3-5 cm) true leaf, were used as test substrate. The plants were placed in a room with whitefly adults. Adults were allowed to deposit eggs for 2-3 days. After a 2-3 day egg-laying period, plants were taken from the adult whitefly room. Adults were blown off leaves using a hand-held Devilbiss sprayer (23 psi). Plants with egg infestation (100-300 eggs per plant) were placed in a holding room for 5-6 days at 82° F. and 50% RH for egg hatch and crawler stage to develop. Four cotton plants were used for each treatment. Compounds (2 mg) were dissolved in 1 mL of acetone solvent, forming stock solutions of 2000 ppm. The stock solutions were diluted 10× with 0.025% Tween 20 in H2O to obtain a test solution at 200 ppm. A hand-held Devilbiss sprayer was used for spraying a solution to both sides of cotton leaf until runoff. Reference plants (solvent check) were sprayed with the diluent only. Treated plants were held in a holding room for 8-9 days at approximately 82° F. and 50% RH prior to grading. Evaluation was conducted by counting the number of live nymphs per plant under a microscope. Insecticidal activity was measured by using Abbott's correction formula and presented in “Table 4. Biological Data for GPA (MYZUPE) and sweetpotato whitefly-crawler (BEMITA)” (see column “BEMITA”): Corrected % Control=100*(X−Y)/X • where • X=No. of live nymphs on solvent check plants • Y=No. of live nymphs on treated plants Pesticidally Acceptable Acid Addition Salts, Salt Derivatives, Solvates, Ester Derivatives, Polymorphs, Isotopes and Radionuclides

[2] = test system: Green Peach Aphid (Myzus persicae) (MYZUPE); test: Bioassay on green peach aphid (GPA), foliar spray on cabbage seedlings; type: in vivo; conditions: 72 h, 200 ppm foliar spray on cabbage seedlings, graded after three days, Abbott-corrected % control, read-out: MYZUPE % Ctrl @ 200 ppm
Procedure: Certain molecules disclosed in this document were tested against GPA using procedures described in the following example. In the reporting of the results, the “Table 3: GPA (MYZUPE) and sweetpotato whitefly-crawler (BEMITA) Rating Table” was used (See Table Section).
Cabbage seedlings grown in 3-inch pots, with 2-3 small (3-5 cm) true leaves, were used as test substrate. The seedlings were infested with 20-50 GPA (wingless adult and nymph stages) one day prior to chemical application. Four pots with individual seedlings were used for each treatment. Test compounds (2 mg) were dissolved in 2 mL of acetone/methanol (1:1) solvent, forming stock solutions of 1000 ppm test compound. The stock solutions were diluted 5× with 0.025% Tween 20 in H2O to obtain the solution at 200 ppm test compound. A hand-held aspirator-type sprayer was used for spraying a solution to both sides of […] leaves until runoff. Reference plants (solvent check) were sprayed with the diluent only containing 20% by volume of acetone/methanol (1:1) solvent. Treated plants were held in a holding room for three days at approximately 25° C. and ambient relative humidity (RH) prior to grading. Evaluation was conducted by counting the number of live aphids per plant under a microscope. Percent Control was measured by using Abbott's correction formula (W. S. Abbott, “A Method of Computing the Effectiveness of an Insecticide” J. Econ. Entomol. 18 (1925), pp. 265-267) as follows. Corrected % Control=100*(X−Y)/X • where • X=No. of live aphids on solvent check plants and • Y=No. of live aphids on treated plants
Biological Data for GPA (MYZUPE) and sweetpotato whitefly-crawler (BEMITA)” (See Table Section).

Compound	inhibition at 200 ppm [1]	inhibition at 200 ppm [2]	melting point
Cc1nc(-c2cncc(F)c2)cn1N(CC1CC1)C(=O)C(C)C [Compound 26]	0 to 80%	0 to 80%	–
CCCCC(=O)N(CC1CC1)n1cc(-c2cccnc2)nc1C [Compound 15]	80 to 100%	0 to 80%	–
CSC(C)CC(=O)N(C)n1cc(-c2cccnc2)nc1C (centres unmarked) [Compound 2, N-Methyl-N-(2-methyl-4-pyridin-3-yl-imidazol-1-yl)-3-methylsulfanyl-butramide]	< 0%	0 to 80%	–
Cc1nc(-c2cccnc2)cn1N(C)C(=O)C(C)(C)C [Compound 7]	80 to 100%	0 to 80%	–
Cc1nc(-c2cccnc2)cn1N(CC1CC1)C(=O)C(C)(C)C [Compound 11]	80 to 100%	0 to 80%	–
Cc1nc(-c2cccnc2)cn1N(CC1CC1)C(=O)C(C)C [Compound 20]	< 0%	0 to 80%	–
Cc1nc(-c2cncc(F)c2)cn1N(C)C(=O)C(C)C [Compound 22]	80 to 100%	0 to 80%	–
CSCCC(=O)N(C)n1cc(-c2cccnc2)nc1C [Compound 10]	80 to 100%	0 to 80%	–
CCN(C(=O)CCSC)n1cc(-c2cncc(F)c2)nc1C [Compound 25]	80 to 100%	0 to 80%	–
Cc1nc(-c2cccnc2)cn1N(C)C(=O)C(C)C [Compound 1]	0 to 80%	0 to 80%	122 to 125 °C
CCCCC(=O)N(C)n1cc(-c2cccnc2)nc1C [Compound 9]	80 to 100%	0 to 80%	–
CCN(C(=O)C(C)C)n1cc(-c2cncc(F)c2)nc1C [Compound 24]	0 to 80%	0 to 80%	–
CSCCC(=O)N(CC1CC1)n1cc(-c2cncc(F)c2)nc1C [Compound 27]	80 to 100%	0 to 80%	–
CC(=O)Nn1cc(-c2cccnc2)nc1Cl [Compound 39, N-(2-Chloro-4-(pyridin-3-yl)-1H-imidazol-1-yl)acetamide]	–	–	129 to 139 °C
CCN(C(=O)C(C)(C)C)n1cc(-c2cccnc2)nc1C [Compound 13]	0 to 80%	< 0%	–
CCN(C(=O)CC(F)(F)F)n1cc(-c2cccnc2)nc1C [Compound 14]	< 0%	< 0%	–
Cc1nc(-c2cccnc2)cn1N(C)C(=O)CC(F)(F)F [Compound 8]	80 to 100%	0 to 80%	130.9 to 131.5 °C
Cc1nc(-c2cccnc2)cn1N(CC1CC1)C(=O)CC(F)(F)F [Compound 12]	80 to 100%	< 0%	–
CC(=O)Nn1cc(-c2cccnc2)nc1C [Compound 5]	80 to 100%	80 to 100%	–
CCN(C(=O)OC(C)(C)C)n1cc(-c2cccnc2)nc1Cl [Compound 41, tert-Butyl (2-chloro-4-(pyridin-3-yl)-1H-imidazol-1-yl)(ethyl)carbamate]	80 to 100%	0 to 80%	–
Cc1nc(-c2cccnc2)c(C)n1NC(=O)OC(C)(C)C [Compound 4, (2,5-Dimethyl-4-pyridin-3-yl-imidazol-1-yl)-carbamic acid tert-butyl ester]	0 to 80%	< 0%	–
CCCCC(=O)N(CC)n1cc(-c2cccnc2)nc1C [Compound 19]	80 to 100%	0 to 80%	–
CSCCC(=O)N(CC1CC1)n1cc(-c2cccnc2)nc1C [Compound 21]	80 to 100%	0 to 80%	–
Cc1nc(-c2cccnc2)cn1N(C)C(=O)OC(C)(C)C [Compound 3, Methyl-(2-methyl-4-pyridin-3-yl-imidazol-1-yl)-carbamic acid tert-butyl ester]	0 to 80%	0 to 80%	–
CCN(C(=O)C(C)C)n1cc(-c2cccnc2)nc1C [Compound 17]	0 to 80%	0 to 80%	–
CSCCC(=O)N(C)n1cc(-c2cncc(F)c2)nc1C [Compound 23]	80 to 100%	80 to 100%	–
CCN(C(=O)CCSC)n1cc(-c2cccnc2)nc1C [Compound 18]	80 to 100%	80 to 100%	–
CC(=O)N(C)n1cc(-c2cccnc2)nc1C [Compound 6]	80 to 100%	0 to 80%	–
CSCC(C)(C)C(=O)N(C)n1cc(-c2cccnc2)nc1C [Compound 16]	< 0%	< 0%	–
